Data reported in patent EP0016946A1, “Process and reagent for the activation of cholesterol esterase” (BOEHRINGER MANNHEIM GMBH, priority 1979, dated 1980).
Blank lines part the entries; values can stand above or below the molecule they belong to.

Tested on: Cholesterinesterase
Experiment: Cholesterol esterase activity: rate of ester cleavage, continuous-flow apparatus with photometric cholesterol indicator reaction (546 nm)
Format: biochemical
Method: Zum Nachweis der aktivierenden Wirkung der zu untersuchenden synergistischen Kombinationen der Erfindung auf Cholesterinesterase wurde die in Fig. 1 dargestellte Apparatur verwendet.
Aus einem temperierbaren Reaktionsgefäß 1 (25°C), in dem sich die Esterspaltung vollzieht, werden über eine Schlauchpumpe 2 durch einen Förderschlauch 3 definierten Querschnitts kontinuierlich o,32 ml Gemisch/Minute entnommen. über die gleiche Pumpe wird durch einen zweiten Schlauch 4 aus einem Vorratsgefäß 5 ebenfalls kontinuierlich 1,o ml Indikatorlösung/Minute gefördert, hinter der Pumpe 2 mit einem Luftstrom 6 von konstant o,6 ml Luft/ Minute zusammengeführt und damit segmentiert und dann mit dem zuvor beschriebenen Reaktionsgemischstrom vereinigt. Der Gesamtstrom passiert daraufhin zwei Glasschlangen 7, wodurch eine Durchmischung der Flüssigkeiten und die notwendige Reaktionszeit für die Indikatorreaktion bis zum Endpunkt gewährleistet wird. Durch Abziehen eines Stroms von 1,2 ml/Minute unmittelbar vor der Küvette durch Schlauchleitung 8 senkrecht nach oben werden die Luftblasen wieder entfernt. Der nicht segmentierte Reststrom wird zur photometrischen Messung (bei 546 nm) in eine Durchflußküvette (1 cm Schichtdicke) geleitet und die Meßwerte werden vom Schreiber 1o registriert.
Wegen der gleichbleibenden Bedingungen bezüglich der Indikatorreaktion sind Änderungen in Höhe und Verlauf des Meßsignals allein von den Vorgängen im Reaktionsgefäß abhängig. Findet dort eine Esterspaltung statt, so bewirkt deren kinetischer Verlauf eine Zunahme des Meßsignals, welches als positive Steigung mit dem Schreiber 1o registriert wird. Die Steilheit des Anstiegs ist ein Maß für die Reaktionsgeschwindigkeit und damit für die Cholesterinesteraseaktivität im Reaktionsansatz.
Wegen des getrennten Ablaufs von Esterspaltung und Indikatorreaktion ist eine gegenseitige Beeinflussung ausgeschlossen. Natürlich wären auch andere Indikatorsysteme einschließlich der Sauerstoffelektrode verwendbar.
Die Indikatorlösung setzt zunächst freies Cholesterin zu Cholestenon und H202 um. Das entstandene H202 wird mit Phenol und 4-Aminoantipyrin zu einem roten Farbstoff umgesetzt, dessen Absorption photometrisch gemessen wird. Die Menge des entstehenden Farbstoffs ist der Konzentration des freien Cholesterins proportional. Die Konzentration an freiem Cholesterin setzt sich aus dem bereits im Substrat vorhandenen Anteil an freiem Cholesterin sowie aus dem durch die Esterase freigesetzten Cholesterin zusammen.
Start mit 50 µl einer Esterase-Stocklösung, woraufhin o,oo3 U/ml Esterase im Ansatz vorliegen. Bei Aktivitätsabstufungen wurde diese Menge variiert.
Nach erfolgtem Start und Durchmischung wird bei laufender Pumpe 2 der Förderschlauch 3 in die Lösung im Reaktionsgefäß 1 für etwa 1o Minuten eingetaucht. Anschließend wird zur besseren Trennung der Signale in jeweils etwa 1o Segmenten wechselweise Luft und bidest. Wasser angesaugt. Daraufhin kann die nächste Bestimmung erfolgen.

SMILES: OCC(Cl)(Cl)Cl [2,2,2-Trichloräthanol]
- Resultierende Geschwindigkeit gegenüber Vergleichswert (1 Vol.-% additive, 1o %o Genapol OX-1oo/1o %o Na-Caprylat, o,oo3 U/ml Cholesterinesterase, o,1 M Kaliumphosphatpuffer, pH 7,o with adjuvant vs o,3 M buffer without adjuvant): Der Vergleichswert wird übertroffen
- Resultierende Geschwindigkeit gegenüber Vergleichswert (o,1 Vol.-% additive, o,3 M Kaliumphosphatpuffer, pH 7,o, reduced Tergitol NPX concentration with adjuvant vs detergent concentration optimum without adjuvant, o,oo3 U/ml Cholesterinesterase): Der Vergleichswert wird übertroffen
- Resultierende Geschwindigkeit gegenüber Vergleichswert (o,3 Vol.-% additive, 0,3 M Kaliumphosphatpuffer, pH 7,o, reduced Genapol OX-1oo/Natriumcaprylat concentration with adjuvant vs detergent concentration optimum without adjuvant, o,oo3 U/ml Cholesterinesterase): Der Vergleichswert wird deutlich übertroffen

- Resultierende Geschwindigkeit gegenüber Vergleichswert (1,4 Vol.-% additive, 15 %o Tergitol NPX, 0,003 U/ml Cholesterinesterase, o,1 M Kaliumphosphatpuffer, pH 7,o with adjuvant vs o,3 M buffer without adjuvant, 25°C): Der Vergleichswert wird übertroffen
- Resultierende Geschwindigkeit gegenüber Vergleichswert (1 Vol.-% additive, 0,3 M Kaliumphosphatpuffer, pH 7,o, reduced Genapol OX-1oo/Natriumcaprylat concentration with adjuvant vs detergent concentration optimum without adjuvant, o,oo3 U/ml Cholesterinesterase): Der Vergleichswert wird erreicht
SMILES: CC(C)CC(C)O (stereo not shown) [4-Methylpentanol-(2)]

SMILES: OC1CCCCC1 [Cyclohexanol]
- Resultierende Geschwindigkeit gegenüber Vergleichswert (1 Vol.-% additive, o,3 M Kaliumphosphatpuffer, pH 7,o, reduced Tergitol NPX concentration with adjuvant vs detergent concentration optimum without adjuvant, o,oo3 U/ml Cholesterinesterase): Der Vergleichswert wird deutlich übertroffen
- Resultierende Geschwindigkeit gegenüber Vergleichswert (2 Vol.-% additive (example 6.3), 15 %o Tergitol NPX, 0,003 U/ml Cholesterinesterase, o,1 M Kaliumphosphatpuffer, pH 7,o with adjuvant vs o,3 M buffer without adjuvant, 25°C): Der Vergleichswert wird deutlich übertroffen
- Resultierende Geschwindigkeit gegenüber Vergleichswert (2 Vol.-% additive, 0,3 M Kaliumphosphatpuffer, pH 7,o, reduced Genapol OX-1oo/Natriumcaprylat concentration with adjuvant vs detergent concentration optimum without adjuvant, o,oo3 U/ml Cholesterinesterase): Der Vergleichswert wird übertroffen
- Resultierende Geschwindigkeit gegenüber Vergleichswert (2 Vol.-% additive, 1o %o Genapol OX-1oo/1o %o Na-Caprylat, o,oo3 U/ml Cholesterinesterase, o,1 M Kaliumphosphatpuffer, pH 7,o with adjuvant vs o,3 M buffer without adjuvant): Der Vergleichswert wird übertroffen

SMILES: Oc1ccccc1 [Phenol]
- Resultierende Geschwindigkeit gegenüber Vergleichswert (4o mM (ca. o,35 Gew.-%) additive, 1o %o Genapol OX-1oo/1o %o Na-Caprylat, o,oo3 U/ml Cholesterinesterase, o,1 M Kaliumphosphatpuffer, pH 7,o with adjuvant vs o,3 M buffer without adjuvant): Der Vergleichswert wird erreicht
